{"source": "patent US20250289786A1", "about": "“CHLORINATED MONOCARBONYL CURCUMIN COMPOUNDS, PREPARATION METHOD, AND APPLICATION” (Southwest Medical University, priority 2024, published 2025)", "key": {"PC12 cells [1]": {"test_system": "PC12 cells", "test": "MTT toxicity (safety evaluation) on PC12 nerve cells", "type": "cell-based", "description": "The toxicity of each drug to PC12 cells was determined by MTT assay. The principle of the MTT colorimetric method: there is succinate dehydrogenase in the mitochondria of living cells, which can make exogenous MTT become blue-purple crystal formazan insoluble in water, this phenomenon cannot be observed in dead cells. The blue-purple crystal formazan can be dissolved by DMSO, and the absorbance value is measured by a microplate reader at a wavelength of 490 nm, which in turn reflects the number of living cells. […] The operation method is as follows:\nThe cells were resuscitated with DMEM high glucose medium containing 10% fetal bovine serum and cultured in a 5% CO2 cell incubator at 37° C., when the cells grew to the logarithmic growth phase, they were inoculated into a 96-well plate and cultured for 24 hours, each well was added with 100 μL of each compound solution at the corresponding gradient concentration (60, 30, 15, 7.5, 3.75 μM), after incubation in the incubator for 24 h or 48 h, 20 μL of MTT was added to continue incubation for 4 h, the supernatant was discarded and 150 μL of DMSO was added to dissolve the blue-purple crystals, after shaking for 10 min, the cell viability was detected by a microplate reader, and classified according to the cytotoxicity standard. The relevant calculation formula is as follows: […]"}, "BV2 cells [2]": {"test_system": "BV2 cells", "test": "ROS detection (DCFH-DA) in LPS-induced BV2 cells", "type": "cell-based", "conditions": "10, 5 and 1 μM with LPS, in words", "source_text": "(§1) When the body is in a long-term stress and stress state, a large number of oxidizing substances and inflammatory factors accumulate in the body, causing depression and inducing depression-like symptoms. LPS is a pro-inflammatory substance, which can induce the increase of inflammatory factors, the accumulation of reactive oxygen species ROS and the release of NO in BV2 cells. The anti-inflammatory and antioxidant effects of drugs can be evaluated by establishing an LPS stress model.\nROS detection: The fluorescent dye probe DCFH-DA can freely pass through the BV2 cell membrane, and the dye entering the cell is enzymatically hydrolyzed to DCFH, at this time, it can no longer pass through the cell membrane. The intracellular ROS can oxidize DCFH to DCF with fluorescence, which can reflect the ROS content by detecting the fluorescence intensity of DCF. The specific operation is as follows: when BV2 cells grew to the logarithmic growth phase, they were inoculated in a 6-well plate at 1×10^6 cells/well and cultured for 24 h. […] After the cells were co-cultured with compound CAK06 for 12 h, the cells were stained according to the instructions of the ROS detection kit, and photographed and analyzed by an inverted fluorescence microscope."}, "PC12 cells [3]": {"test_system": "PC12 cells", "test": "Inhibition of corticosterone (CORT)-induced PC12 cell damage", "type": "cell-based, rat", "conditions": "24 h"}, "[4]": {"test_system": "liver, heart, spleen, lung, and kidney tissues", "test": "HE staining safety evaluation of mouse tissues", "type": "in vivo", "conditions": "kidney of mice, in words"}, "[5]": {"test": "ABTS free radical capture ability", "type": "biochemical", "conditions": "20 min reaction in the dark", "description": "66.2 mg of K2S2O8 was weighed and placed in a 100 mL volumetric flask, pure water was added to the scale line to prepare a 2.45 mmol/L K2S2O8 solution. 192 mg of ABTS was accurately weighed and placed in a 25 mL volumetric flask, and the newly prepared K2S2O8 solution was added for dissolving and constant volume dilution, after standing in the dark for 20 h, the ABTS mother liquor was obtained. Before use, to make the measured value more accurate, the ABTS mother liquor needs to be diluted with a PBS solution of pH7.4 until the absorbance range of the ABTS working solution at 734 nm is 0.70±0.02.\nDrug concentration screening: To avoid the complete removal of free radicals by excessive drug concentration and the inability to compare the ability to capture ABTS free radicals, a preliminary screening of drug concentration is required before the formal test. A gradient concentration of compound solution was prepared, and a gradient concentration of Vit C solution was prepared as a positive control. A total of 450 μL of ABTS working solution was accurately absorbed into a 1.5 mL EP tube, and 150 μL of the gradient solution of each group of drugs was added, after 20 min of reaction in the dark, 150 μL of the reaction solution was taken and placed in a 96-well plate, the absorbance was measured by a microplate reader. Three duplicate wells were set for each concentration, and the drug concentration with absorbance between 0.2-0.7 was selected for subsequent determination.\nDetermination operation: After the drug concentration screening was completed, 7 concentration gradient groups were set within this concentration range. A total of 450 μL of ABTS working solution was accurately absorbed into a 1.5 mL EP tube, and 150 μL of the gradient solution of each group of drugs was added. After 20 min of reaction in the dark, 150 μL of the reaction solution was taken and placed in a 96-well plate, the absorbance was measured by a microplate reader. Three duplicate wells were set for each concentration, the positive control group was a gradient solution of Vit C, and the blank control group was an equal volume of anhydrous ethanol."}, "BV2 cells [6]": {"test_system": "BV2 cells", "test": "NO release in LPS-induced BV2 cell stress", "type": "cell-based", "conditions": "1 μg/mL LPS; for NO release versus model group: 24 h, in words", "source_text": "as §1\nNO detection: When BV2 cells grew to the logarithmic growth phase, they were inoculated in a 6-well plate at 1×10^6 cells/well and cultured for 24 h. Then the original medium was replaced with CAK06 fresh DMEM high glucose medium containing high (10 μM), medium (5 μM), and low (1 μM) concentrations, and three duplicate wells were set up in each group. After the cells were treated with compound CAK06 for 12 h, the supernatant of the culture medium was centrifuged and stained according to the instructions of the NO detection kit, and the absorbance was detected at a wavelength of 540 nm."}}}
{"smiles": "COc1cc(/C=C2\\CNC/C(=C\\c3cc(Cl)c(O)c(OC)c3)C2=O)cc(Cl)c1O", "note": "[CAK06, 3,5-bis ((E)-3-chloro-4-hydroxy-5-methoxybenzylidene) piperidin-4-one]", "values": [{"measurement": "cytotoxicity to PC12 cells", "setting": "PC12 cells [1]; 3.75-60 μM, 24 h and 48 h, in words", "value": "no significant cytotoxicity"}, {"measurement": "Rank (cytotoxicity standard) 24 h", "setting": "PC12 cells [1]; PC12, 3.75 μM", "value": 0}, {"measurement": "Relative growth rate (%) 24 h", "setting": "PC12 cells [1]; PC12, 3.75 μM", "value": "98.50 ± 3.77", "unit": "%"}, {"measurement": "Rank (cytotoxicity standard) 48 h", "setting": "PC12 cells [1]; PC12, 3.75 μM", "value": 0}, {"measurement": "Relative growth rate (%) 48 h", "setting": "PC12 cells [1]; PC12, 3.75 μM", "value": "100.05 ± 0.75", "unit": "%"}, {"measurement": "Rank (cytotoxicity standard) 24 h", "setting": "PC12 cells [1]; PC12, 7.5 μM", "value": 0}, {"measurement": "Relative growth rate (%) 24 h", "setting": "PC12 cells [1]; PC12, 7.5 μM", "value": "100.42 ± 2.85", "unit": "%"}, {"measurement": "Rank (cytotoxicity standard) 48 h", "setting": "PC12 cells [1]; PC12, 7.5 μM", "value": 1}, {"measurement": "Relative growth rate (%) 48 h", "setting": "PC12 cells [1]; PC12, 7.5 μM", "value": "92.97 ± 2.54", "unit": "%"}, {"measurement": "Rank (cytotoxicity standard) 24 h", "setting": "PC12 cells [1]; PC12, 15 μM", "value": 1}, {"measurement": "Relative growth rate (%) 24 h", "setting": "PC12 cells [1]; PC12, 15 μM", "value": "98.55 ± 4.12", "unit": "%"}, {"measurement": "Rank (cytotoxicity standard) 48 h", "setting": "PC12 cells [1]; PC12, 15 μM", "value": 1}, {"measurement": "Relative growth rate (%) 48 h", "setting": "PC12 cells [1]; PC12, 15 μM", "value": "88.82 ± 0.28", "unit": "%"}, {"measurement": "Rank (cytotoxicity standard) 24 h", "setting": "PC12 cells [1]; PC12, 30 μM", "value": 1}, {"measurement": "Relative growth rate (%) 24 h", "setting": "PC12 cells [1]; PC12, 30 μM", "value": "94.56 ± 2.82", "unit": "%"}, {"measurement": "Rank (cytotoxicity standard) 48 h", "setting": "PC12 cells [1]; PC12, 30 μM", "value": 1}, {"measurement": "Relative growth rate (%) 48 h", "setting": "PC12 cells [1]; PC12, 30 μM", "value": "93.60 ± 4.14", "unit": "%"}, {"measurement": "Rank (cytotoxicity standard) 24 h", "setting": "PC12 cells [1]; PC12, 60 μM", "value": 0}, {"measurement": "Relative growth rate (%) 24 h", "setting": "PC12 cells [1]; PC12, 60 μM", "value": "114.78 ± 1.81", "unit": "%"}, {"measurement": "Rank (cytotoxicity standard) 48 h", "setting": "PC12 cells [1]; PC12, 60 μM", "value": 0}, {"measurement": "Relative growth rate (%) 48 h", "setting": "PC12 cells [1]; PC12, 60 μM", "value": "109.26 ± 4.07", "unit": "%"}, {"measurement": "ROS fluorescence intensity", "setting": "BV2 cells [2]", "value": "decreased in a concentration-dependent manner"}, {"measurement": "relative cell proliferation rate", "setting": "PC12 cells [3]; 60 μM drug with 514.6 μM CORT", "value": "66.95±0.97", "unit": "%"}, {"measurement": "effect on viability of CORT-damaged PC12 cells", "setting": "PC12 cells [3]; 3.75-60 μM drug with 514.6 μM CORT, in words", "value": "time-dependent and concentration-dependent cell protection"}, {"measurement": "HE staining pathology of tissues", "setting": "[4]", "value": "basically normal"}, {"measurement": "IC50 values of ABTS captured", "setting": "[5]", "value": 44.95, "unit": "µg/mL"}, {"measurement": "absorbance (NO release)", "setting": "BV2 cells [6]; 1 μM (low), 12 h, 540 nm, model 0.153, blank 0.080", "value": 0.145}, {"measurement": "NO release versus model group", "setting": "BV2 cells [6]; 1 μM (low)", "value": "no significant difference"}, {"measurement": "NO release versus model group", "setting": "BV2 cells [6]; 5 μM (medium)", "value": "significantly improved"}, {"measurement": "NO release versus model group", "setting": "BV2 cells [6]; 10 μM (high)", "value": "significantly improved"}]}
